Measurements as given in paper PMC4896453 (PLoS ONE, 2016).

Tests used:
[1] = molecular target: T1, Kappa receptor (CHOhKappa) (Homo sapiens, UniProt P41145); experiment: GTPγ[35S] binding, CHOhKappa membranes; type: biochemical
T1 construct: expressed in transfected cells; host or cells: CHO (Chinese Hamster Ovary)

[2] = molecular target: T2, NOP receptor (CHOhNOP) (Homo sapiens, UniProt P41146); experiment: Displacement binding of [3H]-UFP-101, CHOhNOP membranes
T2 construct: expressed in transfected cells; host or cells: CHO (Chinese Hamster Ovary)
T2 sequence (P41146 whole entry): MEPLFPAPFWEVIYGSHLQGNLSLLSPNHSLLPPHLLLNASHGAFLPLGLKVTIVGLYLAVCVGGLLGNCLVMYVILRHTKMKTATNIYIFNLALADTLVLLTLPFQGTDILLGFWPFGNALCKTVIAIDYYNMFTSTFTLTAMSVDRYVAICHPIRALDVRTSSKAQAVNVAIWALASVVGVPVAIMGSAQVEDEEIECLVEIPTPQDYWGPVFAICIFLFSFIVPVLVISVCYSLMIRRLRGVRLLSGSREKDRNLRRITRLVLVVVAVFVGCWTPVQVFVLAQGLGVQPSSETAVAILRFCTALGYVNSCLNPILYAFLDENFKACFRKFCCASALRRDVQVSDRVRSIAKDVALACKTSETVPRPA
Protocol: (§1) In the radioligand displacement binding assays, homogenization/wash buffer consisting of 50 mM Tris-HCl pH to 7.4 with KOH, for CHOhMu, CHOhDelta and CHOhKappa or additional 5 mM MgSO4 for CHOhNOP was used. Homogenisation buffer (50 mM Tris and 0.2 mM EGTA pH 7.4 with NaOH) was used in GTPγ[^35S] assays. Membranes were centrifuged at 20374 g for 10 min at 4°C. This process was repeated at least three times. The resulting pellet was resuspended in an appropriate amount of the necessary buffer and the protein concentration was determined by Lowry assay.
(§2) Samples were incubated for 1 hr at room temperature and reactions were terminated by vacuum filtration, onto PEI-soaked Whatman GF/B filters, using a Brandel harvester.

[3] = molecular target: T3, human Mu receptor (Mu-RLuc/Gβ1-RGFP) (Homo sapiens, UniProt P35372); experiment: BRET Mu-RLuc/Gβ1-RGFP interaction, SH-SY5Y membranes; type: biochemical
T3 construct: expressed in transfected cells; host or cells: SH-SY5Y (retroviral expression; membranes used)
T3 sequence (P35372 whole entry, looked up): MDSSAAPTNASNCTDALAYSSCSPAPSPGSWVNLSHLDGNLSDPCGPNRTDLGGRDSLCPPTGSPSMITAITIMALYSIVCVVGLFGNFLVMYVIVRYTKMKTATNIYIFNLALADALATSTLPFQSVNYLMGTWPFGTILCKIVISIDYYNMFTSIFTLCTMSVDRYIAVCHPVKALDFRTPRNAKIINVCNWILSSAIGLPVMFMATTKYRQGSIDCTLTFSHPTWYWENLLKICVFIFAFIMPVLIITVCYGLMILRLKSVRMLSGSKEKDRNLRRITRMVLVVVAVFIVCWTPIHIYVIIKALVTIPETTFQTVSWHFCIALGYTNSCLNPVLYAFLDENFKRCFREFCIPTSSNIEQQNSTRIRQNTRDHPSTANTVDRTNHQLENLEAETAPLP

[4] = molecular target: T4, human NOP receptor (Homo sapiens, UniProt P41146); experiment: Calcium mobilisation, CHO cells with NOP and Gαqi5; type: cell-based
T4 construct: expressed in transfected cells; host or cells: CHO
T4 sequence (P41146 whole entry): as the sequence (P41146 whole entry) above

[5] = test system: rats; experiment: Rota-rod test after intrathecal infusion; type: in vivo, rat; conditions: same range of doses (0.1–1 nmol), data not shown
Protocol: For all the experiments described below, male Sprague-Dawley rats (Harlan, Varese, Italy), weighing approximately 280-300g at the beginning of the experimental procedure, were used. Animals were housed in CeSAL (Centro Stabulazione Animali da Laboratorio, University of Florence) and used at least one week after their arrival. One rat was housed per cage (size 26x41 cm); animals were fed with standard laboratory diet and tap water ad libitum, and kept at 23±1°C with a 12 h light/dark cycle, light at 7 a.m. […] All animals were monitored daily using a scoring system (based on: Appearance, Food and Water Intake, Clinical Signs, Natural Behaviour and Provoked Behaviour. Maximum score is 20 and animals reaching 10 are euthanized. In the experiments reported here no animals reached this score and none died before the end of the experiment) and at the end of the experiment were euthanized by CO2 overdose. […]
Rota-rod apparatus (Ugo Basile, Varese, Italy) consisted of a base platform and a rotating rod with a diameter of 6 cm and a non-slippery surface. […] The integrity of motor coordination was assessed on the basis of the number of falls from the rod in 60s measured 15, 30, 45, 60, 90, 120 and 180 min after treatments.

[6] = molecular target: T2, NOP receptor (CHOhNOP); experiment: GTPγ[35S] binding, CHOhNOP membranes; type: biochemical
[7] = molecular target: T5, human Mu receptor (Mu-RLuc/β-arrestin 2-RGFP) (Homo sapiens, UniProt P35372); experiment: BRET Mu-RLuc/β-arrestin 2-RGFP interaction, SH-SY5Y cells; type: cell-based
T5 construct: expressed in transfected cells; host or cells: SH-SY5Y (retroviral expression; whole cells)
T5 sequence (P35372+P27652 fused): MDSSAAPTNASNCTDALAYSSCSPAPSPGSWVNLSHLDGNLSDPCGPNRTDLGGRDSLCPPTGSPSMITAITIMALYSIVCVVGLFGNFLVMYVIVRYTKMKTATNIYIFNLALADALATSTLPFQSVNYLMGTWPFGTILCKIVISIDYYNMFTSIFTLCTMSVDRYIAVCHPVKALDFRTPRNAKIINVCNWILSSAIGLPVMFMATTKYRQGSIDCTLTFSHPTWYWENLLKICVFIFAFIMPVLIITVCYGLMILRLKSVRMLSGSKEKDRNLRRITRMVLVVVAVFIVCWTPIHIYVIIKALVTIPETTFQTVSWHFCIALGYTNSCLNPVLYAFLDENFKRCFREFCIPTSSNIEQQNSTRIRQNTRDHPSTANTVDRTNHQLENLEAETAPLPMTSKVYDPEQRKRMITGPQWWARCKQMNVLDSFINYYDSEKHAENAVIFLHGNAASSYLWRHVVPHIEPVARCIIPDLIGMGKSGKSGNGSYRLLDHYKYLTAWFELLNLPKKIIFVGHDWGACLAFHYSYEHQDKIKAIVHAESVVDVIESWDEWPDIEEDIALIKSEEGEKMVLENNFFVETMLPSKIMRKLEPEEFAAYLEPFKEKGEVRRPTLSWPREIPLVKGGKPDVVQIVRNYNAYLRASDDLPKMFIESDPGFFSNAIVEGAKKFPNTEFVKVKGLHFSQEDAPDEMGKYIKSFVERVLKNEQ
T5 sequence (P32121 whole entry partner): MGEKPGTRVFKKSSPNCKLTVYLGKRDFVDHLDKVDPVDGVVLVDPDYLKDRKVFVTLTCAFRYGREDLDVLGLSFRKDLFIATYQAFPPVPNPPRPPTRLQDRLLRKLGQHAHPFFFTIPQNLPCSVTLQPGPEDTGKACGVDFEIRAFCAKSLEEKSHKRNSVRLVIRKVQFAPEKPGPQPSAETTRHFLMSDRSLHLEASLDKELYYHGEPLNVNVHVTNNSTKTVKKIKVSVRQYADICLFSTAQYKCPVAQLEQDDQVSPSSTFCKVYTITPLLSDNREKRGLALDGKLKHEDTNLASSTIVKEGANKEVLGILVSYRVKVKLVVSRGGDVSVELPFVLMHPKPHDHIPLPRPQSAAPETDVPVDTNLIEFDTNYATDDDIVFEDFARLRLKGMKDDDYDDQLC

[8] = molecular target: T6, Delta receptor (CHOhDelta) (Homo sapiens, UniProt P41143); experiment: Displacement binding of [3H]-DPN, CHOhDelta membranes; conditions: SEM
T6 construct: expressed in transfected cells; host or cells: CHO (Chinese Hamster Ovary)
T6 sequence (P41143 whole entry): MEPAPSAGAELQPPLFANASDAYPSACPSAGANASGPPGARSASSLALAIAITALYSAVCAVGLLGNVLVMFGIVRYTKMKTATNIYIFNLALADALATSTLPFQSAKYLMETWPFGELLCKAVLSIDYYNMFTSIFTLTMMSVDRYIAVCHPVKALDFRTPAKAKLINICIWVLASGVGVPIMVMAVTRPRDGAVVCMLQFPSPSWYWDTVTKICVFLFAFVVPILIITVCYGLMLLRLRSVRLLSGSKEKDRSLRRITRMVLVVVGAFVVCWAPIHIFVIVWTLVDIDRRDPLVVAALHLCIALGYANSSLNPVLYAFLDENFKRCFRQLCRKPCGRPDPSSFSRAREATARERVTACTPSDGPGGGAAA
Protocol: as §1, §2

[9] = molecular target: T7, human Mu receptor (Homo sapiens, UniProt P35372); experiment: Calcium mobilisation, CHO cells with Mu and Gαqi5; type: cell-based
T7 construct: expressed in transfected cells; host or cells: CHO
T7 sequence (P35372 whole entry): as the sequence (P35372 whole entry, looked up) above

[10] = molecular target: T6, Delta receptor (CHOhDelta); experiment: GTPγ[35S] binding, CHOhDelta membranes; type: biochemical
[11] = molecular target: human NOP receptor (NOP-RLuc/Gβ1-RGFP) (Homo sapiens, UniProt P41146); experiment: biochemical; type: biochemical
Chain of human NOP receptor (NOP-RLuc/Gβ1-RGFP) (P41146 whole entry, looked up): as the sequence (P41146 whole entry) above

[12] = molecular target: T8, human NOP receptor (NOP-RLuc/β-arrestin 2-RGFP) (Homo sapiens, UniProt P41146); experiment: BRET NOP-RLuc/β-arrestin 2-RGFP interaction, HEK-293 cells; type: cell-based
T8 construct: expressed in transfected cells; host or cells: HEK-293 (retroviral expression; whole cells)
T8 sequence (P41146+P27652 fused): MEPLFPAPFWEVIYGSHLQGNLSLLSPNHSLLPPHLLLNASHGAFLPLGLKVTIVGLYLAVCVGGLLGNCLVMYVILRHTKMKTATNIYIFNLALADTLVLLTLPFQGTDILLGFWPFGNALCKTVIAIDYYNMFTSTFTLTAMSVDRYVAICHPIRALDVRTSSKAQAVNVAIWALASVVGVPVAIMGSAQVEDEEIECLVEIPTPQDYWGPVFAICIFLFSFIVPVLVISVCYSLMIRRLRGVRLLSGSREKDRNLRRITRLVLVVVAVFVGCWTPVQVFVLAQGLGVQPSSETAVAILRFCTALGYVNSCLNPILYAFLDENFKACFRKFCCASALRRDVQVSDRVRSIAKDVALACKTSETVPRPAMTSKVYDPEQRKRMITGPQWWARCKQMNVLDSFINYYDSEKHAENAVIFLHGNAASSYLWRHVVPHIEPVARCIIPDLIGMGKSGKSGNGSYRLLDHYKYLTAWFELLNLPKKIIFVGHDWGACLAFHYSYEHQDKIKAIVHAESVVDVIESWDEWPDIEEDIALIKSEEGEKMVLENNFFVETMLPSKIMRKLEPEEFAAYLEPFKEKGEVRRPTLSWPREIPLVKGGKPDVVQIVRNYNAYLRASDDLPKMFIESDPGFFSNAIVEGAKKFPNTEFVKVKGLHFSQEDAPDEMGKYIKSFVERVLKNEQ
T8 sequence (P32121 whole entry partner): as the sequence (P32121 whole entry partner) above

[13] = molecular target: T1, Kappa receptor (CHOhKappa); experiment: Displacement binding of [3H]-DPN, CHOhKappa membranes; conditions: SEM
Protocol: as §1, §2

[14] = molecular target: T9, Mu receptor (CHOhMu) (Homo sapiens, UniProt P35372); experiment: GTPγ[35S] binding, CHOhMu membranes; type: biochemical
T9 construct: expressed in transfected cells; host or cells: CHO (Chinese Hamster Ovary)
T9 sequence (P35372 whole entry): as the sequence (P35372 whole entry, looked up) above

[15] = molecular target: T9, Mu receptor (CHOhMu); experiment: Displacement binding of [3H]-DPN, CHOhMu membranes; conditions: SEM
Protocol: as §1, §2

T1 sequence (P41145 whole entry): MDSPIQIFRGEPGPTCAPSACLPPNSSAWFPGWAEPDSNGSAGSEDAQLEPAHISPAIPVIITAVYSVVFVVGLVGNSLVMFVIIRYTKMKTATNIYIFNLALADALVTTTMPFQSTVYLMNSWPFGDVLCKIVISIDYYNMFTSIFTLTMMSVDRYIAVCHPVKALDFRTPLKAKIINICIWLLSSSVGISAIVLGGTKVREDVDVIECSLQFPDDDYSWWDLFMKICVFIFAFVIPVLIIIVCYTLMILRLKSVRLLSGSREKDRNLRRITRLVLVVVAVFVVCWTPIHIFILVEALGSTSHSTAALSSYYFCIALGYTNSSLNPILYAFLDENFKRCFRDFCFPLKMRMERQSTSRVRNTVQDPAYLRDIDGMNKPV

CC(C)C[C@H](NC(=O)[C@H](CCCCN)NC(=O)[C@H](CCCNC(=N)N)NC(=O)[C@H](C)NC(=O)[C@H](CO)NC(=O)[C@H](CCCCN)NC(=O)[C@H](CCCNC(=N)N)NC(=O)[C@H](C)NC(=O)CNC(=O)[C@@H](NC(=O)[C@H](Cc1ccccc1)NC(=O)CNC(=O)CNC(=O)[C@@H](N)Cc1ccccc1)[C@@H](C)O)C(=O)N[C@@H](C)C(=O)N[C@@H](CC(N)=O)C(=O)N[C@@H](CCC(N)=O)C(=O)N[C@@H](CSC1CC(=O)N(CCCC(=O)NCCCC[C@H](NC(=O)[C@H](CO)NC(=O)[C@@H]2CCCN2C(=O)[C@H](Cc2ccc(O)cc2)NC(=O)CNC(=O)[C@H](Cc2ccccc2)NC(=O)[C@@H](C)NC(=O)[C@@H](N)Cc2ccc(O)cc2)C(N)=O)C1=O)C(N)=O (stereo partly drawn) [DeNo]
EC50 [1]: 1200 nM | Ki ([2]; SEM): 0.0603 nM | NOP selectivity over Mu in binding ([2]; from pKi values): ~ 5 fold | EC50 [3]: 9.77 nM | EC50 [4]: 0.204 nM | Emax ([4]; calcium mobilisation, % over basal fluorescence, CHO cells with human NOP and Gαqi5, at least 3 experiments in duplicate, SEM): 244 ± 6% | animal performance in the rotarod test [5]: impaired animal performance in the rotarod test | EC50 [6]: 0.316 nM | EC50 [7]: 437 nM | Ki [8]: 7.59 nM | EC50 [9]: 67.6 nM | Emax ([9]; calcium mobilisation, % over basal fluorescence, CHO cells with human Mu and Gαqi5, at least 3 experiments in duplicate, SEM): 209 ± 15% | EC50 [10]: 166 nM | EC50 [11]: 0.955 nM | EC50 [12]: 6.46 nM | Ki [13]: 45.7 nM | EC50 [14]: 17 nM | Ki [15]: 0.282 nM
